{"source": "PubChem BioAssay AID1919002", "about": "(Molecular Pharmacology Branch, DTP, NCI, 2023);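 note: spheroids exposed to agents for 7 days before readout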;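 for viability, T/C: 100% = DMSO vehicle control wells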", "system": "743489-274-T-PDC complex spheroid growth", "assay": "Anticancer human tumor 743489-274-T-PDC patient-derived renal cell carcinoma cell line growth inhibition [AhR]", "details": "for IC50: curve of first compound; for viability, T/C: stronger effect = lower value", "summary_of_the_method": "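Agents were dosed in half-log steps down from roughly clinical Cmax, or from 10 microM where Cmax was unknown, alone and with AhR antagonists. Read-out: percent test/control growth of tumor spheroids containing HUVEC and MSC stromal cells.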", "key": {"[1]": {"details": "second compound 0.1 µM, first compound 0.0316 µM"}, "[2]": {"details": "second compound 0.1 µM, first compound 0.1 µM"}, "[3]": {"details": "second compound 0.1 µM, first compound 0.316 µM"}, "[4]": {"details": "second compound 0.1 µM, first compound 1 µM"}, "[5]": {"details": "second compound 0.316 µM, first compound 0.0316 µM"}, "[6]": {"details": "second compound 0.316 µM, first compound 0.1 µM"}, "[7]": {"details": "second compound 0.316 µM, first compound 0.316 µM"}, "[8]": {"details": "second compound 0.316 µM, first compound 1 µM"}, "[9]": {"details": "second compound 1 µM, first compound 0.0316 µM"}, "[10]": {"details": "second compound 1 µM, first compound 0.1 µM"}, "[11]": {"details": "second compound 1 µM, first compound 0.316 µM"}, "[12]": {"details": "second compound 1 µM, first compound 1 µM"}, "[13]": {"details": "second compound 3.16 µM, first compound 0.0316 µM"}, "[14]": {"details": "second compound 3.16 µM, first compound 0.1 µM"}, "[15]": {"details": "second compound 3.16 µM, first compound 0.316 µM"}, "[16]": {"details": "second compound 3.16 µM, first compound 1 µM"}, "[17]": {"details": "second compound 10 µM, first compound 0.0316 µM"}, "[18]": {"details": "second compound 10 µM, first compound 0.1 µM"}, "[19]": {"details": "second compound 10 µM, first compound 0.316 µM"}, "[20]": {"details": "second compound 10 µM, first compound 1 µM"}}}
{"smiles": "COc1cccc2c1C(=O)c1c(O)c3c(c(O)c1C2=O)CC(O)(C(=O)CO)CC3OC1CC(N)C(O)C(C)O1", "note": "(stereo not given) + Cc1ccccc1N=Nc1ccc(NC(=O)c2ccnn2C)c(C)c1", "values": [{"measurement": "IC50", "setting": "second compound 0.1 µM", "result": 5.54, "unit": "µM"}, {"measurement": "IC50", "setting": "second compound 0.316 µM", "result": 5.43, "unit": "µM"}, {"measurement": "IC50", "setting": "second compound 1 µM", "result": 9.11, "unit": "µM"}, {"measurement": "IC50", "setting": "second compound 3.16 µM", "result": 8.62, "unit": "µM"}, {"measurement": "IC50", "setting": "second compound 10 µM", "result": 4.79, "unit": "µM"}, {"measurement": "viability, T/C", "setting": "[1]", "result": 102, "unit": "%"}, {"measurement": "viability, T/C", "setting": "[2]", "result": 97.3, "unit": "%"}, {"measurement": "viability, T/C", "setting": "[3]", "result": 114, "unit": "%"}, {"measurement": "viability, T/C", "setting": "[4]", "result": 102, "unit": "%"}, {"measurement": "viability, T/C", "setting": "second compound 0.1 µM, first compound 3.16 µM", "result": 73.3, "unit": "%"}, {"measurement": "viability, T/C", "setting": "second compound 0.1 µM, first compound 10 µM", "result": 25.6, "unit": "%"}, {"measurement": "viability, T/C", "setting": "[5]", "result": 107, "unit": "%"}, {"measurement": "viability, T/C", "setting": "[6]", "result": 96.8, "unit": "%"}, {"measurement": "viability, T/C", "setting": "[7]", "result": 99.7, "unit": "%"}, {"measurement": "viability, T/C", "setting": "[8]", "result": 105, "unit": "%"}, {"measurement": "viability, T/C", "setting": "second compound 0.316 µM, first compound 3.16 µM", "result": 81.4, "unit": "%"}, {"measurement": "viability, T/C", "setting": "second compound 0.316 µM, first compound 10 µM", "result": 14.5, "unit": "%"}, {"measurement": "viability, T/C", "setting": "[9]", "result": 96, "unit": "%"}, {"measurement": "viability, T/C", "setting": "[10]", "result": 101, "unit": "%"}, {"measurement": "viability, T/C", "setting": "[11]", "result": 98.6, "unit": "%"}, {"measurement": "viability, T/C", "setting": "[12]", "result": 95.2, "unit": "%"}, {"measurement": "viability, T/C", "setting": "second compound 1 µM, first compound 3.16 µM", "result": 80.4, "unit": "%"}, {"measurement": "viability, T/C", "setting": "second compound 1 µM, first compound 10 µM", "result": 47.3, "unit": "%"}, {"measurement": "viability, T/C", "setting": "[13]", "result": 90, "unit": "%"}, {"measurement": "viability, T/C", "setting": "[14]", "result": 88.8, "unit": "%"}, {"measurement": "viability, T/C", "setting": "[15]", "result": 105, "unit": "%"}, {"measurement": "viability, T/C", "setting": "[16]", "result": 96, "unit": "%"}, {"measurement": "viability, T/C", "setting": "second compound 3.16 µM, first compound 3.16 µM", "result": 87.3, "unit": "%"}, {"measurement": "viability, T/C", "setting": "second compound 3.16 µM, first compound 10 µM", "result": 44.3, "unit": "%"}, {"measurement": "viability, T/C", "setting": "[17]", "result": 85.3, "unit": "%"}, {"measurement": "viability, T/C", "setting": "[18]", "result": 82.2, "unit": "%"}, {"measurement": "viability, T/C", "setting": "[19]", "result": 95.1, "unit": "%"}, {"measurement": "viability, T/C", "setting": "[20]", "result": 83.5, "unit": "%"}, {"measurement": "viability, T/C", "setting": "second compound 10 µM, first compound 3.16 µM", "result": 71.9, "unit": "%"}, {"measurement": "viability, T/C", "setting": "second compound 10 µM, first compound 10 µM", "result": 11.7, "unit": "%"}]}
{"smiles": "Nc1ncn(C2CC(O)C(CO)O2)c(=O)n1", "note": "(stereo not given) + Cc1ccccc1N=Nc1ccc(NC(=O)c2ccnn2C)c(C)c1", "values": [{"measurement": "IC50", "setting": "second compound 0.1 µM", "result": "> 1", "unit": "µM"}, {"measurement": "IC50", "setting": "second compound 0.316 µM", "result": "> 1", "unit": "µM"}, {"measurement": "IC50", "setting": "second compound 1 µM", "result": "> 1", "unit": "µM"}, {"measurement": "IC50", "setting": "second compound 3.16 µM", "result": "> 1", "unit": "µM"}, {"measurement": "IC50", "setting": "second compound 10 µM", "result": "> 1", "unit": "µM"}, {"measurement": "viability, T/C", "setting": "second compound 0.1 µM, first compound 0.00316 µM", "result": 86.2, "unit": "%"}, {"measurement": "viability, T/C", "setting": "second compound 0.1 µM, first compound 0.01 µM", "result": 91.2, "unit": "%"}, {"measurement": "viability, T/C", "setting": "[1]", "result": 88.6, "unit": "%"}, {"measurement": "viability, T/C", "setting": "[2]", "result": 92.5, "unit": "%"}, {"measurement": "viability, T/C", "setting": "[3]", "result": 103, "unit": "%"}, {"measurement": "viability, T/C", "setting": "[4]", "result": 87.1, "unit": "%"}, {"measurement": "viability, T/C", "setting": "second compound 0.316 µM, first compound 0.00316 µM", "result": 107, "unit": "%"}, {"measurement": "viability, T/C", "setting": "second compound 0.316 µM, first compound 0.01 µM", "result": 89.2, "unit": "%"}, {"measurement": "viability, T/C", "setting": "[5]", "result": 89.8, "unit": "%"}, {"measurement": "viability, T/C", "setting": "[6]", "result": 87.2, "unit": "%"}, {"measurement": "viability, T/C", "setting": "[7]", "result": 87.8, "unit": "%"}, {"measurement": "viability, T/C", "setting": "[8]", "result": 84.7, "unit": "%"}, {"measurement": "viability, T/C", "setting": "second compound 1 µM, first compound 0.00316 µM", "result": 89.7, "unit": "%"}, {"measurement": "viability, T/C", "setting": "second compound 1 µM, first compound 0.01 µM", "result": 99.1, "unit": "%"}, {"measurement": "viability, T/C", "setting": "[9]", "result": 101, "unit": "%"}, {"measurement": "viability, T/C", "setting": "[10]", "result": 79.8, "unit": "%"}, {"measurement": "viability, T/C", "setting": "[11]", "result": 101, "unit": "%"}, {"measurement": "viability, T/C", "setting": "[12]", "result": 87.9, "unit": "%"}, {"measurement": "viability, T/C", "setting": "second compound 3.16 µM, first compound 0.00316 µM", "result": 94.8, "unit": "%"}, {"measurement": "viability, T/C", "setting": "second compound 3.16 µM, first compound 0.01 µM", "result": 81.7, "unit": "%"}, {"measurement": "viability, T/C", "setting": "[13]", "result": 83.9, "unit": "%"}, {"measurement": "viability, T/C", "setting": "[14]", "result": 74.8, "unit": "%"}, {"measurement": "viability, T/C", "setting": "[15]", "result": 88.9, "unit": "%"}, {"measurement": "viability, T/C", "setting": "[16]", "result": 82.8, "unit": "%"}, {"measurement": "viability, T/C", "setting": "second compound 10 µM, first compound 0.00316 µM", "result": 92.7, "unit": "%"}, {"measurement": "viability, T/C", "setting": "second compound 10 µM, first compound 0.01 µM", "result": 88, "unit": "%"}, {"measurement": "viability, T/C", "setting": "[17]", "result": 90, "unit": "%"}, {"measurement": "viability, T/C", "setting": "[18]", "result": 96.2, "unit": "%"}, {"measurement": "viability, T/C", "setting": "[19]", "result": 80.1, "unit": "%"}, {"measurement": "viability, T/C", "setting": "[20]", "result": 82.8, "unit": "%"}]}
